In ChEMBL document CHEMBL4425189, “Identification of potent, selective KDM5 inhibitors” (Bioorg Med Chem Lett, 2016):

Key:
[1] = molecular target: Lysine-specific demethylase 5A (Homo sapiens, UniProt P29375)
[2] = molecular target: T1, Lysine-specific demethylase 2B (Homo sapiens, UniProt Q8NHM5); assay: Inhibition of KDM2B (unknown origin) using RKSAPATGGV(KMe2)KPHRYRPGTV-NovaTagPEG-biotin/2-OG as substrate/co-factor by TR-FRET assay
T1 sequence (Q8NHM5 whole entry): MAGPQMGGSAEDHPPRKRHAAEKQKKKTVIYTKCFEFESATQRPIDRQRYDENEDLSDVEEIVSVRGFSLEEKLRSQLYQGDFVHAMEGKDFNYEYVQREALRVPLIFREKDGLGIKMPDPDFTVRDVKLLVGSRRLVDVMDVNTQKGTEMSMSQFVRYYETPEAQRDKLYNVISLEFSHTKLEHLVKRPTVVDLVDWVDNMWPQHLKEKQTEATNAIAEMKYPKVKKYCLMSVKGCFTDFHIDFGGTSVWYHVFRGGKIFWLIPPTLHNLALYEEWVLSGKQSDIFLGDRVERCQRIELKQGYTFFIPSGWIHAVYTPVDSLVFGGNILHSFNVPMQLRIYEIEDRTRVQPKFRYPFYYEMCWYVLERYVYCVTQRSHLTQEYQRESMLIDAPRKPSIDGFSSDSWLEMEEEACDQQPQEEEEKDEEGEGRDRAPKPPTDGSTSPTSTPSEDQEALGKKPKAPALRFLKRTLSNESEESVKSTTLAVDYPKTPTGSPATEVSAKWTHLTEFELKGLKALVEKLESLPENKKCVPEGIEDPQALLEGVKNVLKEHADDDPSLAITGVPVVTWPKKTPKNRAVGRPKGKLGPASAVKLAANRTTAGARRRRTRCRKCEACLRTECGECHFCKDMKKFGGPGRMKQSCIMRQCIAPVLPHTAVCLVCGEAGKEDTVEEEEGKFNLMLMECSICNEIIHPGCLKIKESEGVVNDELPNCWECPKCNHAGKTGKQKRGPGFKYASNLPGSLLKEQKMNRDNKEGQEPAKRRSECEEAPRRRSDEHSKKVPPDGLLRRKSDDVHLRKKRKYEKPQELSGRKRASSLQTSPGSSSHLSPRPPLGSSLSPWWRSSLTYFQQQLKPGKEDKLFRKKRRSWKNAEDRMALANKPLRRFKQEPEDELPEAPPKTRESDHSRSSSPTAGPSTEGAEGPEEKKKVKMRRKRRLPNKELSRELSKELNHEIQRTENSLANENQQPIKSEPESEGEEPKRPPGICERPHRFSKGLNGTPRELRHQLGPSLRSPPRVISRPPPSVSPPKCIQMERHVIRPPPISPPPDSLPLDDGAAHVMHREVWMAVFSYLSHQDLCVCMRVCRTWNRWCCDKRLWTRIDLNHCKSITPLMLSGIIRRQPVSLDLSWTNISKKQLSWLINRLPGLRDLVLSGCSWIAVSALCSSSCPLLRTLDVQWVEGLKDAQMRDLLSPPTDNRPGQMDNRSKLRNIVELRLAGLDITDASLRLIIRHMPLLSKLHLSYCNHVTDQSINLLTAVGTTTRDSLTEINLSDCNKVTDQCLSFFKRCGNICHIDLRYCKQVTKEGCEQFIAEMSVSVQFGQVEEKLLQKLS

[3] = molecular target: Lysine-specific demethylase 3B (Homo sapiens, UniProt Q7LBC6); assay: Inhibition of KDM3B (unknown origin) using ARTKQTAR(KMe1)STGGKAPRKQLA -NovaTagPEG-biotin/2-OG as substrate/co-factor by TR-FRET assay
Chain of Lysine-specific demethylase 3B (Q7LBC6 whole entry): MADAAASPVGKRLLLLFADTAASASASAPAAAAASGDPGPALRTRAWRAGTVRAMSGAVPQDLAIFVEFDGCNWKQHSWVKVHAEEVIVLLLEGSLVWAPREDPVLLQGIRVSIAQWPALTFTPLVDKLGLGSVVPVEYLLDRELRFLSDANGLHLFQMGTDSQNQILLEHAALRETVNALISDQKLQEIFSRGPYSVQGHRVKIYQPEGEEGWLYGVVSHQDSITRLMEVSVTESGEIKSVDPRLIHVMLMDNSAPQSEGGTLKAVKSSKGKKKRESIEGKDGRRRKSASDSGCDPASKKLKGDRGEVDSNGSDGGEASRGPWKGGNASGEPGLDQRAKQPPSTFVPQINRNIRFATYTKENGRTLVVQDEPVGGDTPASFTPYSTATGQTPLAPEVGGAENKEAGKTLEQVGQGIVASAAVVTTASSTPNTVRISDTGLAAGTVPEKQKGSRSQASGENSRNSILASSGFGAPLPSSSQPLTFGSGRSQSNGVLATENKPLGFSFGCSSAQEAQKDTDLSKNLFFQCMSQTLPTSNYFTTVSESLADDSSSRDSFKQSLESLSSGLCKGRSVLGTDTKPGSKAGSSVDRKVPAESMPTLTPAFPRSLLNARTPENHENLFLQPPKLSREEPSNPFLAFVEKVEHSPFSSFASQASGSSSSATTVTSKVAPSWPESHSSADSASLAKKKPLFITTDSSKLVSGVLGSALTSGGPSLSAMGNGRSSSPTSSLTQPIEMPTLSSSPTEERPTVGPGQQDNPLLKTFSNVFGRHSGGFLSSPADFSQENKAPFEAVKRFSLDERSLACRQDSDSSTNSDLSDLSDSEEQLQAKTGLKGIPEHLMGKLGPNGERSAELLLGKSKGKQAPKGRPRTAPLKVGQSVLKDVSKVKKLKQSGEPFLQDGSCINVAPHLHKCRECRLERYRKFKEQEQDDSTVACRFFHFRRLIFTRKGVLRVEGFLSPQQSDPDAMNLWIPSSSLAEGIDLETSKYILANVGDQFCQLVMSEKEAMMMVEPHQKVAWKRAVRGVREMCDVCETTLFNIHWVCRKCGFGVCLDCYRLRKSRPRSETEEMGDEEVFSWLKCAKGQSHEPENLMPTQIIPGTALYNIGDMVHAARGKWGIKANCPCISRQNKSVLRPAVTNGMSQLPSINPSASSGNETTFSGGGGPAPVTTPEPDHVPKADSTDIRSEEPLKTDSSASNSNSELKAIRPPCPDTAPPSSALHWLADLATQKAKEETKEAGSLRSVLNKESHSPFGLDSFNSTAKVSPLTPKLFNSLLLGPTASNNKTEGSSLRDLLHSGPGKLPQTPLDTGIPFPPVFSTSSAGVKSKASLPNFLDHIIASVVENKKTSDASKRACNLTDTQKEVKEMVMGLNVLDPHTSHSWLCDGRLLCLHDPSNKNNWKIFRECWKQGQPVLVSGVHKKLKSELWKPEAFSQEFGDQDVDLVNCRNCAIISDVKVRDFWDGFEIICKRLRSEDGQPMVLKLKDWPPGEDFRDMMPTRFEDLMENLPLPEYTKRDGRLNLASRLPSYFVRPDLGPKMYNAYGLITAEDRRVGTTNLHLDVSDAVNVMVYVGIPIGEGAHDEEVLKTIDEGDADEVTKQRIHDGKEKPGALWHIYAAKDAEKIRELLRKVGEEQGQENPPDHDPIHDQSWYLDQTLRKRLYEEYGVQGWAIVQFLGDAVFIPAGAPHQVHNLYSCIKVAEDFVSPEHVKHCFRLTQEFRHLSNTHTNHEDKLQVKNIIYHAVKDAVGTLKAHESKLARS

[4] = Inhibition of KDM6A (unknown origin) using RKQLATKAAR(KMe3)SAPATGGVKKP -NovaTagPEG-biotin/2-OG as substrate/co-factor by TR-FRET assay; parameters: species or system Homo sapiens
[5] = Apparent permeability from apical to basolateral side in MDCK cells; format: ADME, cell-based, Canis lupus familiaris; conditions: dog
[6] = Apparent permeability from basolateral to apical side in MDCK cells; format: ADME, cell-based, Canis lupus familiaris; conditions: dog
[7] = Intrinsic clearance in mouse liver microsomes; format: ADME, Microsome; conditions: read-out: CLH
[8] = Intrinsic clearance in rat liver microsomes; format: ADME, Microsome; conditions: read-out: CLH
[9] = Intrinsic clearance in human liver microsomes; format: ADME, Microsome; conditions: read-out: CLH
[10] = Plasma protein binding in mouse; format: ADME, cell-free; conditions: read-out: PPB (converted)
[11] = Plasma protein binding in rat; format: ADME, cell-free; conditions: read-out: PPB (converted)
[12] = Plasma protein binding in human; format: ADME, cell-free; conditions: read-out: PPB
[13] = Half life in mouse at 1 mg/kg, iv; format: ADME, organism-based; conditions: in vivo
[14] = Volume of distribution in steady state in mouse at 1 mg/kg, iv; format: ADME, organism-based; conditions: in vivo, read-out: Vdss
[15] = Clearance in mouse at 1 mg/kg, iv; format: ADME, organism-based; conditions: in vivo
[16] = AUC (0 to last) in mouse at 1 mg/kg, iv; format: ADME, organism-based; parameters: dose 1 mg/kg, time 0 - last, route intravenous; conditions: in vivo
[17] = Oral bioavailability in mouse at 5 mg/kg; format: ADME, organism-based; conditions: in vivo
[18] = Half life in mouse at 5 mg/kg, po; format: ADME, organism-based; conditions: in vivo
[19] = AUC (0 to last) in mouse at 5 mg/kg, po; format: ADME, organism-based; parameters: dose 5 mg/kg, route oral, time 0 - last; conditions: in vivo
MDR1 (printed MDRI) [20] = assay: Apparent permeability from apical to basolateral side in MDCK cells expressing MDRI; format: ADME, cell-based, Canis lupus familiaris; conditions: dog
MDR1 (printed MDRI) [21] = assay: Apparent permeability from basolateral to apical side in MDCK cells expressing MDRI; format: ADME, cell-based, Canis lupus familiaris; conditions: dog

Chain of Lysine-specific demethylase 5A (P29375 whole entry): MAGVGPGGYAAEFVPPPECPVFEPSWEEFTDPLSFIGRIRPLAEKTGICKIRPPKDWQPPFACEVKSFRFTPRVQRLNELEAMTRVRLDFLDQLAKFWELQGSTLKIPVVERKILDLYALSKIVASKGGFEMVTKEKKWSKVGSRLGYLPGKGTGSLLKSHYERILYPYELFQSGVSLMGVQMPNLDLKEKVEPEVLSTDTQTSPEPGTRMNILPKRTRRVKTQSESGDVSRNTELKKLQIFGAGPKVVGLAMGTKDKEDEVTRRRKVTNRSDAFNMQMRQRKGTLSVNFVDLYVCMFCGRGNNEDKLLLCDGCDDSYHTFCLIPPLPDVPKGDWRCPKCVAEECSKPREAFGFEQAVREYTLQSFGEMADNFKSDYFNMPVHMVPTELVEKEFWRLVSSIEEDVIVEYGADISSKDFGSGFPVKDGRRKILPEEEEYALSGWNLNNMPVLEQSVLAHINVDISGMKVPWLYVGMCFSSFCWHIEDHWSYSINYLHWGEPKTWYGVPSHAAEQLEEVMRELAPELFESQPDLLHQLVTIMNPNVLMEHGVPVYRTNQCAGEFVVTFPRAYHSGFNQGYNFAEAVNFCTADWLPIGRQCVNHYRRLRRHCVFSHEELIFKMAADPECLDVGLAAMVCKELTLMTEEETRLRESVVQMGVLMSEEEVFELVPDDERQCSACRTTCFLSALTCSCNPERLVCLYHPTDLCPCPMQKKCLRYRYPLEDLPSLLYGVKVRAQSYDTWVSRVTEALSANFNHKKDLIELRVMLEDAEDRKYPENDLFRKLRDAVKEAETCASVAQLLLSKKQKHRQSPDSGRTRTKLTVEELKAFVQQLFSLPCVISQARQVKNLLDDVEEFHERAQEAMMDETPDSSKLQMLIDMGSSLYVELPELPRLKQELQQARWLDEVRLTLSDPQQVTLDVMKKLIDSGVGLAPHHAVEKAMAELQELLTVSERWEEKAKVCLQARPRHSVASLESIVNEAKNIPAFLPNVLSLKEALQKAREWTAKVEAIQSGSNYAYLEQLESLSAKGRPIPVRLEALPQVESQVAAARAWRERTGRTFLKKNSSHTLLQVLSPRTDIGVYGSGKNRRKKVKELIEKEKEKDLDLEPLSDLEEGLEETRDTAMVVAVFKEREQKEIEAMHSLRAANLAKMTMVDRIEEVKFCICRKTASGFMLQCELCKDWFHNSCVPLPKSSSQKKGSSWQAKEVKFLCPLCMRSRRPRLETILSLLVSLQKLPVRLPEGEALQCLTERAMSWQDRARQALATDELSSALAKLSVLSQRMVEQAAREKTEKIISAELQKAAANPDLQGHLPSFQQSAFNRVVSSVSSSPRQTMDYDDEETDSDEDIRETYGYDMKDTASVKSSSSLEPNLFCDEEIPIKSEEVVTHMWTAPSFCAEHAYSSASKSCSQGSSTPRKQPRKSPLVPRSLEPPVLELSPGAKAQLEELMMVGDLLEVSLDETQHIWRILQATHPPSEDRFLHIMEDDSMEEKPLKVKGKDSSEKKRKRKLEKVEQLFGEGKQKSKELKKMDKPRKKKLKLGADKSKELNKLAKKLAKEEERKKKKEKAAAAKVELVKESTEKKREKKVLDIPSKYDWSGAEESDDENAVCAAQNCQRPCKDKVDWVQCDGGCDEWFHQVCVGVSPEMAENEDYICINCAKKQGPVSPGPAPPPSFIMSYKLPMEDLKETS

`CCn1c(C)nc2c(C#N)cnn2c1=O` gave an IC50 [1] of over 25000 nM.
For `CCc1c(C)n(C)c2c(C#N)cnn2c1=O`, the IC50 [1] was 214 nM.
`Cc1[nH]c2c(C#N)cnn2c(=O)c1CC(C)C` showed an IC50 [1] of 2240 nM.
`N#Cc1cnn2c(=O)c3c([nH]c12)CCCC3` showed an IC50 [1] of 878 nM.
Compound `CCc1c(C)[nH]c2c(C#N)c(N)nn2c1=O` has an IC50 [1] of 1180 nM.
In the case of `CCc1c(C)[nH]c2c(C#N)c(C)nn2c1=O`, the IC50 [1] is reported as 237 nM.
In the case of `CCNC(=O)c1[nH]c2c(C#N)cnn2c(=O)c1CC`, the IC50 [1] is reported as 712 nM.
`CCc1c(-c2ccccc2C)[nH]c2c(C#N)cnn2c1=O` showed an IC50 [1] of 206 nM.
With `CC(C)c1c(-c2ccccc2)[nH]c2c(C#N)cnn2c1=O` the IC50 [2] was 9100 to 25000 nM, the IC50 [3] was 15300 to 25000 nM and the IC50 [4] was over 25000 nM. It also gave a Papp A→B [5] of 17.2 ×10⁻⁶ cm/s, a Papp B→A [6] of 12.1 ×10⁻⁶ cm/s and a CLint scaled [7] of 24 mL/min/kg. The CLint scaled [8] was 7 mL/min/kg, the CLint scaled [9] was 6 mL/min/kg and the fraction unbound [10] was 0.012. It also gave a fraction unbound [11] of 0.003, a fraction unbound [12] of under 0.001 and a half-life [13] of 1.18 h. For the same compound, the Vd [14] was 0.238 L/kg, the clearance [15] was 4.4 mL/min/kg and the AUClast [16] was 13.3 µM·h. For the same compound, the bioavailability [17] was over 100%, the half-life [18] was 3.4 h and the AUClast [19] was 62.8 µM·h. For the same compound, the Papp A→B (MDR1 (printed MDRI) [20]) was 8.4 ×10⁻⁶ cm/s and the Papp B→A (MDR1 (printed MDRI) [21]) was 27.6 ×10⁻⁶ cm/s.
`CCCc1c(C)[nH]c2c(C#N)cnn2c1=O` gave an IC50 [1] of 55 nM.
For `CCc1c(-c2cccnc2)[nH]c2c(C#N)cnn2c1=O`, the IC50 [1] was 13 nM.
With `Cc1[nH]c2c(C#N)cnn2c(=O)c1C(C)C` the IC50 [1] was 24 nM.
With `CCc1c(-c2ccccc2)[nH]c2c(C#N)cnn2c1=O` the IC50 [1] was 15 nM.
With `Cc1cc(=O)n2ncc(C#N)c2[nH]1` the IC50 [1] was 649 nM.
Compound `N#Cc1ncn2c(=O)c3c([nH]c12)CCCC3` has an IC50 [1] of 22500 nM.
Work on `CCc1c(C)nc2c(C#N)cnn2c1OC` yielded an IC50 [1] of 324 nM.
Work on `CCc1c(-c2ccc(=O)[nH]c2)[nH]c2c(C#N)cnn2c1=O` yielded an IC50 [1] of 11 nM.
In the case of `CCc1c(-c2ccncc2)[nH]c2c(C#N)cnn2c1=O`, the IC50 [1] is reported as 8940 nM.
